Patent publication US10093697B2, “IBAT inhibitors for the treatment of liver diseases” (Albireo AB, priority 2010, dated 2018)

Key:
[1] = target: Ileal Bile Acid Transporter Human (Homo sapiens (Human), UniProt Q12908); experiment: ISBT Hu HEK Uptake SPA: glycocholic acid uptake, radiometric SPA; type: cell-based; conditions: human IBAT in HEK cells
Procedure: ISBT Hu HEK Uptake SPA 13203 IBAT HUM Ileal Bile Acid Transporter Human HEK Glycocholic acid Uptake Radiometric—SPA Inhibitor IC50 Mean IC50 (nM) was determined for the compounds of examples 1-14

[2] = target: IBAT (Mus musculus (Mouse), UniProt P70172); experiment: 75SeHCAT intestinal absorption in ApoE knock out mice (IBAT inhibitory effect); type: in vivo; conditions: po, oral dose 0.156 μmol/kg, 75SeHCAT absorption over 24 hours
Sequence of IBAT (P70172 whole entry): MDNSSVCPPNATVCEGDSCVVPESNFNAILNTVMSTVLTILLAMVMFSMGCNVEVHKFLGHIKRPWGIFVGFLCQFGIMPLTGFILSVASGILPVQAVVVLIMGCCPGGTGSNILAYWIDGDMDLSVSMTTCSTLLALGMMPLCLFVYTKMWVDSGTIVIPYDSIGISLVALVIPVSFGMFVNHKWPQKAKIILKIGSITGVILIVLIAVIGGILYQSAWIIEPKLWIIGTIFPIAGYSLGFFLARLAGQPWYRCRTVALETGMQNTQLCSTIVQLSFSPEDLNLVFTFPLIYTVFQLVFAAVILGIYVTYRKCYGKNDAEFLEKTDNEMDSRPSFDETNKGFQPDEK
Procedure: Species Mouse; Strain ApoE knock out; Sub strain C57BL/6; Sex Female; Total No. of animals 70; Body weight range 20 g to 22 g; Supplier Möllegaard's Breeding (Skensved, Denmark); Identification method ID cards (bar code).
Acclimatisation At least one week at the Section of Laboratory; Animal Resource at AstraZeneca; Housing conditions Kept five by five in cages (Makrolon III, 7 dm2) in a room with regulated temperature (22° C.), relative humidity (40% to 60%) and a 12/12 hours light/dark cycle. Diet Free access to R3 pellets (Lactamin, Vadstena, Sweden) during the housing and experimental period. Water, free access to tap water during the housing and experimental period.
The animals were orally administered vehicle (n=3) or the compound of Example 14 (0.156 (n=3), 0.625 (n=3) or 2.5 μmol/kg (n=3)) at 13:00 o'clock on the experimental day. Thirty minutes later, a trace amount of ^75SeHCAT (^75Se-homo-tauro-cholic acid) ([…] per 0.1 mL per mouse) was orally given to each mouse. Twenty-four hours after ^75SeHCAT administration, the animals were killed by CO2 inhalation. At sacrifice, the gall bladder and the whole intestine were removed, and the faeces during the 24-hour period after ^75SeHCAT administration was collected for each mouse. The gamma radioactivities of ^75SeHCAT in the faeces and in the gall bladder-intestine were separately counted by 1282 CompuGamma CS Gamma counter (Wallac oy, Turku, Finland). The stability as well as the quantity of the ^75SeHCAT administered to each mouse, were controlled with an additional ^75SeHCAT aliquot following the same experimental process as other tested samples in the study.
The sum of the gamma counts from both the faeces and the gall bladder-intestine was considered as the total recovered ^75SeHCAT, which was averaged around 85% of the total ^75SeHCAT administered to each mouse. Of the recovered radioactivity of ^75SeHCAT, the percentage of the ^75SeHCAT detected in the faeces was considered as the faecal excretion while that in the gall bladder-intestine as body retention. Inhibitory effect of the compound of Example 14 on ^75SeHCAT intestinal absorption was calculated following the ^75SeHCAT body retention and the faecal excretion, and the ED50 of the compound was estimated following the dose-effect curve.
The mean IBAT inhibitory effect (%) at a dose (μmol/kg): 0.156 was determined for the compounds of examples 1-14 and is reported in Table 1.

[3] = test system: Mdr2−/− mice; experiment: In vivo animal model of primary sclerosing cholangitis (Mdr2-/- mice); conditions: daily oral gavage for 2-4 weeks, vs vehicle
From the text: A genetic mice with targeted disruption of the Multidrug resistant Mdr2 (Abcb4) gene encoding a canalicular phospholipid flippase (Mdr2−/−mice) spontaneously develop sclerosing cholangitis with macroscopic and microscopic features of human Primary sclerosing cholangitis. Bile duct injury in these mice is linked to defective biliary phospholipid secretion resulting in an increased concentration of free non-micellar bile acids which subsequently cause bile duct epithelial cell (cholangiocyte) injury, pericholangitis, periductal fibrosis with ductular proliferation and finally sclerosing cholangitis. […] In analogy to the Mdr2−/− mouse model of sclerosing cholangitis, Multidrug resistant protein MDR3/ABCB4 (the human orthologue of rodent Mdr2/Abcb4) defects play a role in the pathogenesis of various cholangiopathies in humans. MDR3 variants play a role as a modifier gene in the pathogenesis of various cholangiopathies such as PSC, Primary Biliary cirrhosis (PBC) and adulthood idiopathic ductopenia/biliary fibrosis.
Mdr2−/− mice were given daily oral doses of the compound of Example 14 by gavage for 2-4 weeks and controls were dosed the vehicle in the same way. Serum liver tests, liver histology and fibrosis were investigated. The compound of Example 14 improves liver tests, liver histology and fibrosis.

Sequence of Ileal Bile Acid Transporter Human (Q12908 whole entry): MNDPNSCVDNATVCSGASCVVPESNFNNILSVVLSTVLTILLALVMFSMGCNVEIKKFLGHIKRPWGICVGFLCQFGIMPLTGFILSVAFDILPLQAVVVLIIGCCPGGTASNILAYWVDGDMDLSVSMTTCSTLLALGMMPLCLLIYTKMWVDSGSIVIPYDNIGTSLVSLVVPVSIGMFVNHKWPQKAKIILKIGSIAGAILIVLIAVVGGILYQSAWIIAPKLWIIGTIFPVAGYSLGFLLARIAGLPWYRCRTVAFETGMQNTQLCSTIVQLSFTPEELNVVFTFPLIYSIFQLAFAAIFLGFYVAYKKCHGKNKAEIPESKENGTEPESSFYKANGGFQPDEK

Row | inhibition at 0.156 µmol/kg [2] [%] | Structure (SMILES) | further results
1 | 63 | CCCCC1(CCCC)CN(c2ccccc2)c2cc(SC)c(OCC(=O)N[C@@H](C(=O)N[C@@H](C)C(=O)O)c3ccc(O)cc3)cc2S(=O)(=O)N1 [Example 12, 1,1-Dioxo-3,3-dibutyl-5-phenyl-7-methylthio-8-(N—{(R)-α-[N—((S)-1-carboxyethyl)carbamoyl]-4-hydroxybenzyl}carbamoylmethoxy)-2,3,4,5-tetrahydro-1,2,5-benzothiadiazepine] | 
2 | 59 | CCCCC1(CCCC)CN(c2ccccc2)c2cc(SC)c(OCC(=O)N[C@@H](C(=O)N[C@@H](CSC)C(=O)O)c3ccc(O)cc3)cc2S(=O)(=O)N1 [Example 6, 1,1-Dioxo-3,3-dibutyl-5-phenyl-7-methylthio-8-(N—{(R)-α-[N—((R)-1-carboxy-2-methylthio-ethyl)carbamoyl]-4-hydroxybenzyl}carbamoylmethoxy)-2,3,4,5-tetra hydro-1,2,5-benzothiadiazepine] | 
3 | 43 | CCCCC1(CCCC)CN(c2ccccc2)c2cc(SC)c(OCC(=O)N[C@@H](C(=O)NCC(=O)O)c3ccccc3)cc2S(=O)(=O)N1 [Example 1, 1,1-Dioxo-3,3-dibutyl-5-phenyl-7-methylthio-8-(N—{(R)-α-[N-(carboxymethyl)carbamoyl]benzyl}carbamoylmethoxy)-2,3,4,5-tetrahydro-1,2,5-benzothiadiazepine] | 
4 | 63 | CCCCC1(CCCC)CN(c2ccccc2)c2cc(SC)c(OCC(=O)N[C@@H](C(=O)N[C@@H](CC)C(=O)O)c3ccccc3)cc2S(=O)(=O)N1 [Example 3, 1,1-Dioxo-3,3-dibutyl-5-phenyl-7-methylthio-8-(N—{(R)-α-[N—((S)-1-carboxypropyl)carbamoyl]benzyl}carbamoylmethoxy)-2,3,4,5-tetrahydro-1,2,5-benzothiadiazepine] | 

The next lines start with the compound.

Row | Structure (SMILES) | inhibition at 0.156 µmol/kg [2] [%] | further results
5 | CCCCC1(CCCC)CN(c2ccccc2)c2cc(SC)c(OCC(=O)N[C@@H](C(=O)N[C@H](C(=O)O)C(C)C)c3ccc(O)cc3)cc2S(=O)(=O)N1 [Example 13, 1,1-Dioxo-3,3-dibutyl-5-phenyl-7-methylthio-8-(N—{(R)-α-[N—((S)-1-carboxy-2-methylpropyl)carbamoyl]-4-hydroxybenzyl}carbamoylmethoxy)-2,3,4,5-tetra hydro-1,2,5-benzothiadiazepine] | 68 | IC50 [1]: 0.13 nM
6 | CCCCC1(CCCC)CN(c2ccccc2)c2cc(SC)c(OCC(=O)N[C@@H](C(=O)N[C@@H](CCC)C(=O)O)c3ccc(O)cc3)cc2S(=O)(=O)N1 [Example 9, 1,1-Dioxo-3,3-dibutyl-5-phenyl-7-methylthio-8-(N—{(R)-α-[N—((S)-1-carboxybutyl)carbamoyl]-4-hydroxybenzyl}carbamoylmethoxy)-2,3,4,5-tetrahydro-1,2,5-benzothiadiazepine] | 67 | 
7 | CCCCC1(CCCC)CN(c2ccccc2)c2cc(SC)c(OCC(=O)N[C@@H](C(=O)N[C@@H](CC)C(=O)O)c3ccc(O)cc3)cc2S(=O)(=O)N1 [Example 5, 1,1-Dioxo-3,3-dibutyl-5-phenyl-7-methylthio-8-(N—{(R)-α-[N—((S)-1-carboxypropyl)carbamoyl]-4-hydroxybenzyl}carbamoylmethoxy)-2,3,4,5-tetrahydro-1,2,5-benzothiadiazepine] | 74 | 
8 | CCCCC1(CCCC)CN(c2ccccc2)c2cc(SC)c(OCC(=O)N[C@@H](C(=O)N[C@H](C(=O)O)[C@@H](C)O)c3ccc(O)cc3)cc2S(=O)(=O)N1 [Example 8, 1,1-Dioxo-3,3-dibutyl-5-phenyl-7-methylthio-8-(N—{(R)-α-[N—((S)-1-carboxy-2-(R)-hydroxypropyl)carbamoyl]-4-hydroxybenzyl}carbamoylmethoxy)-2,3,4,5-tetrahydro-1,2,5-benzothiadiazepine] | 46 | 
9 | CCCCC1(CCCC)CN(c2ccccc2)c2cc(SC)c(OCC(=O)N[C@@H](C(=O)N[C@@H](C)C(=O)O)c3ccccc3)cc2S(=O)(=O)N1 [Example 10, 1,1-Dioxo-3,3-dibutyl-5-phenyl-7-methylthio-8-(N—{(R)-α-[N—((S)-1-carboxyethyl)carbamoyl]benzyl}carbamoylmethoxy)-2,3,4,5-tetrahydro-1,2,5-benzothiadiazepine] | 68 | 
10 | CCCCC1(CCCC)CN(c2ccccc2)c2cc(SC)c(OCC(=O)N[C@@H](C(=O)N[C@H](C(=O)O)C(C)C)c3ccccc3)cc2S(=O)(=O)N1 [Example 7, 1,1-Dioxo-3,3-dibutyl-5-phenyl-7-methylthio-8-(N—{(R)-α-[N—((S)-1-carboxy-2-methylpropyl)carbamoyl]benzyl}carbamoylmethoxy)-2,3,4,5-tetrahydro-1,2,5-benzothiadiazepine] | 66 | 
11 | CCCCC1(CCCC)CN(c2ccccc2)c2cc(SC)c(OCC(=O)N[C@@H](C(=O)NCC(=O)O)c3ccccc3)cc2S(=O)(=O)C1 [Example 14, 1,1-Dioxo-3,3-dibutyl-5-phenyl-7-methylthio-8-(N—{(R)-1′-phenyl-1′-[N′-(carboxymethyl)carbamoyl]methyl}carbamoylmethoxy)-2,3,4,5-tetrahydro-1,5-benzothiazepine] | 28 | fibrosis [3]: improves; liver histology [3]: improves; liver tests (serum) [3]: improves
12 | CCCCC1(CCCC)CN(c2ccccc2)c2cc(SC)c(OCC(=O)N[C@@H](C(=O)N[C@@H](CSC)C(=O)O)c3ccccc3)cc2S(=O)(=O)N1 [Example 4, 1,1-Dioxo-3,3-dibutyl-5-phenyl-7-methylthio-8-(N—{(R)-α-[N—((R)-1-carboxy-2-methylthioethyl)carbamoyl]benzyl}carbamoylmethoxy)-2,3,4,5-tetrahydro-1,2,5-benzothiadiazepine] | 63 | 
